Values of other authors in US20170119663A1, “NOVEL GASTRO-RETENTIVE DOSAGE FORMS” (Grünenthal GmbH, priority 2010, published 2017).
Read-outs that look alike come from different tables or passages of the source.

For NCC1(CC(=O)O)CCCCC1 [gabapentin], the oral bioavailability (dose in the range of 300-400 mg) is listed as “approximately 60%” and the oral bioavailability (dose of 1600 mg) is listed as 35%.

For CC(C)C[C@H](CN)CC(=O)O [pregabalin], the absorption window (small intestine and ascending colon) is given as “around six”.
